# Assay results from patent publication US20250009713A1 (priority 2021, published 2025).
# Experiments:
# Format in all cases: cell-based
# [1] = system: SARS-COV-2 USA/MD-HP20874/2021 (omicron variant; NR-56461); assay: microbe, parasite or virus in culture; details: Plaque, Calu-3, virus Omicron
# [2] = system: SARS-COV-2 US-PHC658/2021 (delta variant; NR-55611); assay: microbe, parasite or virus in culture; details: Plaque, Calu-3, virus Delta
# [3] = system: SARS-COV-2 US-PHC658/2021 (delta variant; NR-55611); assay: microbe, parasite or virus in culture; details: PCR, Vero, virus Delta
# [4] = system: SARS-COV-2 England/204820464/2020 (alpha variant; NR-54000); assay: microbe, parasite or virus in culture; details: Plaque, Calu-3, virus UK
# [5] = system: SARS-COV-2 SouthAfrica/KRISP-K005325/2020 (beta variant; NR-54009); assay: microbe, parasite or virus in culture; details: Plaque, Calu-3, virus SA
# [6] = system: SARS-COV-2 SouthAfrica/KRISP-K005325/2020 (beta variant; NR-54009); assay: microbe, parasite or virus in culture; details: PCR, Calu-3, virus SA
# [7] = system: SARS-COV-2 USA/MD-HP20874/2021 (omicron variant; NR-56461); assay: microbe, parasite or virus in culture; details: Plaque, Vero, virus Omicron
# [8] = system: SARS-COV-2 USA/MD-HP20874/2021 (omicron variant; NR-56461); assay: microbe, parasite or virus in culture; details: PCR, Calu-3, virus Omicron
# [9] = system: SARS-COV-2 USA/MD-HP20874/2021 (omicron variant; NR-56461); assay: microbe, parasite or virus in culture; details: PCR, Vero, virus Omicron
# [10] = system: SARS-COV-2 England/204820464/2020 (alpha variant; NR-54000); assay: microbe, parasite or virus in culture; details: PCR, Calu-3, virus UK
# [11] = system: SARS-COV-2 SouthAfrica/KRISP-K005325/2020 (beta variant; NR-54009); assay: microbe, parasite or virus in culture
# [12] = system: SARS-COV-2 US-PHC658/2021 (delta variant; NR-55611); assay: microbe, parasite or virus in culture; details: Plaque, Vero, virus Delta
# [13] = system: SARS-COV-2 US-PHC658/2021 (delta variant; NR-55611); assay: microbe, parasite or virus in culture; details: PCR, Calu-3, virus Delta
# [14] = system: SARS-COV-2 strain US (US-WA1/2020); assay: plaque assay, strain US, summary over cell types; details: Severe acute respiratory syndrome coronavirus 2, two-way ANOVA estimate
# [15] = system: SARS-COV-2 England/204820464/2020 (alpha variant; NR-54000); assay: microbe, parasite or virus in culture; details: Plaque, Vero, virus UK
# [16] = system: SARS-COV-2 England/204820464/2020 (alpha variant; NR-54000); assay: microbe, parasite or virus in culture
# [17] = system: SARS-COV-2 SouthAfrica/KRISP-K005325/2020 (beta variant; NR-54009); assay: microbe, parasite or virus in culture; details: Plaque, Vero, virus SA
# [18] = Severe acute respiratory syndrome coronavirus 2, m.o.i 0.1, […]
# [19] = PCR, Vero, virus SA, log-logistic curve fit
# [20] = Severe acute respiratory syndrome coronavirus 2, Vero
# [21] = PCR, Vero, virus UK, log-logistic curve fit
smiles,measurement,setting,value
"Cn1cc(-c2cccc3cc(C(=O)NC(=N)N)ccc23)cn1 [BIT225, N-carbamimidoyl-5-(1-methyl-1H-pyrazol-4-yl)-2-naphthamide]",Max. Response (d),[1]; log-logistic curve fit,3.42 log10
same,Slope (b),[1]; log-logistic curve fit,1.11 nmol⁻¹
same,EC50,[1]; [18],7.61 µM
same,Max. Response (d),[2]; log-logistic curve fit,3.44 log10
same,Slope (b),[2]; log-logistic curve fit,1.00 nmol⁻¹
same,EC50,[2]; [18],7.9 µM
same,Max. Response (d),[3]; log-logistic curve fit,3.55 log10
same,Slope (b),[3]; log-logistic curve fit,1.15 nmol⁻¹
same,EC50,[3]; [18],3.59 µM
same,Max. Response (d),[4]; log-logistic curve fit,3.43 log10
same,Slope (b),[4]; log-logistic curve fit,1.15 nmol⁻¹
same,EC50,[4]; [18],5.72 µM
same,Max. Response (d),[5]; log-logistic curve fit,3.52 log10
same,Slope (b),[5]; log-logistic curve fit,1.34 nmol⁻¹
same,EC50,[5]; [18],6.79 µM
same,Max. Response (d),[6]; log-logistic curve fit,2.67 log10
same,Slope (b),[6]; log-logistic curve fit,1.07 nmol⁻¹
same,EC50,[6]; [18],4.17 µM
same,Max. Response (d),[7]; log-logistic curve fit,6.31 log10
same,Slope (b),[7]; log-logistic curve fit,1.41 nmol⁻¹
same,EC50,[7]; [18],6.5 µM
same,Max. Response (d),[8]; log-logistic curve fit,2.57 log10
same,Slope (b),[8]; log-logistic curve fit,1.08 nmol⁻¹
same,EC50,[8]; [18],4.37 µM
same,Max. Response (d),[9]; log-logistic curve fit,3.51 log10
same,Slope (b),[9]; log-logistic curve fit,1.22 nmol⁻¹
same,EC50,[9]; [18],3.37 µM
same,Max. Response (d),[10]; log-logistic curve fit,2.58 log10
same,Slope (b),[10]; log-logistic curve fit,1.21 nmol⁻¹
same,EC50,[10]; [18],2.86 µM
same,Max. Response (d),[11]; [19],3.52 log10
same,Slope (b),[11]; [19],1.28 nmol⁻¹
same,EC50,[11]; [20],2.65 µM
same,Max. Response (d),[12]; log-logistic curve fit,6.45 log10
same,Slope (b),[12]; log-logistic curve fit,1.48 nmol⁻¹
same,EC50,[12]; [18],6.65 µM
same,Max. Response (d),[13]; log-logistic curve fit,2.56 log10
same,Slope (b),[13]; log-logistic curve fit,1.08 nmol⁻¹
same,EC50,[13]; [18],4.81 µM
same,EC50,[14],3.8 µM
same,Max. Response (d),[15]; log-logistic curve fit,6.41 log10
same,EC50,[15]; [18],6.7 µM
same,Max. Response (d),[16]; [21],3.58 log10
same,Slope (b),[16]; [21],1.07 nmol⁻¹
same,EC50,[16]; [20],4.56 µM
same,Slope (b),[17]; log-logistic curve fit,1.50 nmol⁻¹
same,EC50,[17]; [18],7.26 µM
